Reference: ChEMBL document CHEMBL1909046, “DrugMatrix in vitro pharmacology data”

Tests used:
[1] = DRUGMATRIX: GABAA, Flunitrazepam, Central radioligand binding (ligand: [3H] Flunitrazepam); type: cell membranes, Rattus norvegicus, Wistar, Brain, Membrane; settings: Not Active = under 50% inhibition at 10 µM
Progesterone receptor = target: T1, Progesterone receptor (Bos taurus, UniProt Q690N0); test: DRUGMATRIX: Progesterone radioligand binding (ligand: [3H] R-5020); type: tissue-based, Uterus; settings: Not Active = under 50% inhibition at 10 µM
T1 sequence (Q690N0 whole entry): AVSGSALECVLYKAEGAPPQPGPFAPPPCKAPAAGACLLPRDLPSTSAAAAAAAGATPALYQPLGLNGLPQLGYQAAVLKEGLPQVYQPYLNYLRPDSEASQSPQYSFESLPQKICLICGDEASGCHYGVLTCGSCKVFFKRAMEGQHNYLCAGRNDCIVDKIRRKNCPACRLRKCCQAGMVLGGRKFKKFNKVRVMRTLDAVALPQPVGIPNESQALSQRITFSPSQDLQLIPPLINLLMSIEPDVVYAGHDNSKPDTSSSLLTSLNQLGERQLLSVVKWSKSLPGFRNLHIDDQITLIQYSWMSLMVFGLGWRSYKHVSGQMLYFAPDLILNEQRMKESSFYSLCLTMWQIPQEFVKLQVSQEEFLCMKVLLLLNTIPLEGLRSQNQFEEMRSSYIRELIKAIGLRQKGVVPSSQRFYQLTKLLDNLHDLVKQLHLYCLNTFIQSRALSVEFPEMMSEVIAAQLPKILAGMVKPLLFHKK

Carbonic anhydrase 2 = Carbonic anhydrase 2 (Homo sapiens, UniProt P00918); test: DRUGMATRIX: Carbonic Anhydrase II enzyme inhibition (substrate: 4-Nitrophenyl acetate (4-NPA)); type: tissue-based, Erythrocyte; settings: Not Active = under 50% inhibition at 10 µM
[2] = target: T2, Neuropeptide Y receptor type 2 (Homo sapiens, UniProt P49146); type: cell membranes, Membrane; settings: kan-ts; also: in other assays of this panel Not Active means under 50% inhibition at 10 µM
T2 sequence (P49146 whole entry): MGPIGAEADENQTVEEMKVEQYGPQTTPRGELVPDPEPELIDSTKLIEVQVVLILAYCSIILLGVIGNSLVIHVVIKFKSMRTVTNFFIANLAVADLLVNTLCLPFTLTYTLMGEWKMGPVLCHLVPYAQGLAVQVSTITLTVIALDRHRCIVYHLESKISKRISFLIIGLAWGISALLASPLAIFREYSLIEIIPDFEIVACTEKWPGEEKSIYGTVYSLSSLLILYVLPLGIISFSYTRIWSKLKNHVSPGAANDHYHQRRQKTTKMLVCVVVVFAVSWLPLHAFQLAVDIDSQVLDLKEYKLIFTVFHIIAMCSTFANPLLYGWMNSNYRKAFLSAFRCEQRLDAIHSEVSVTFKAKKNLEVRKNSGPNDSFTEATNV

[3] = target: 5-hydroxytryptamine receptor 2B (Homo sapiens, UniProt P41595); type: cell membranes, CHO-K1, Membrane; also: in other assays of this panel Not Active means under 50% inhibition at 10 µM
[4] = target: T3, C-X-C chemokine receptor type 2 (Homo sapiens, UniProt P25025); type: cell membranes, Membrane; settings: cho-k1; also: in other assays of this panel Not Active means under 50% inhibition at 10 µM
T3 sequence (P25025 whole entry): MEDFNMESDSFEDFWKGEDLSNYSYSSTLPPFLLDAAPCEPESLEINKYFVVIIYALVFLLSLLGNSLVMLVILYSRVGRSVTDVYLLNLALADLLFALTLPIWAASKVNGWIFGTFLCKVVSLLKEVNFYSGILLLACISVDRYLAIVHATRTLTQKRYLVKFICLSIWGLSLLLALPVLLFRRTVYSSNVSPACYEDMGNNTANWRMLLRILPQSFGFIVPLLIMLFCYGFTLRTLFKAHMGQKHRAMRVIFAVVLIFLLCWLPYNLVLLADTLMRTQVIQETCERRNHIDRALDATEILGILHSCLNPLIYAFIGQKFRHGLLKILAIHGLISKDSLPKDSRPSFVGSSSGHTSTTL

Chain of 5-hydroxytryptamine receptor 2B (P41595 whole entry): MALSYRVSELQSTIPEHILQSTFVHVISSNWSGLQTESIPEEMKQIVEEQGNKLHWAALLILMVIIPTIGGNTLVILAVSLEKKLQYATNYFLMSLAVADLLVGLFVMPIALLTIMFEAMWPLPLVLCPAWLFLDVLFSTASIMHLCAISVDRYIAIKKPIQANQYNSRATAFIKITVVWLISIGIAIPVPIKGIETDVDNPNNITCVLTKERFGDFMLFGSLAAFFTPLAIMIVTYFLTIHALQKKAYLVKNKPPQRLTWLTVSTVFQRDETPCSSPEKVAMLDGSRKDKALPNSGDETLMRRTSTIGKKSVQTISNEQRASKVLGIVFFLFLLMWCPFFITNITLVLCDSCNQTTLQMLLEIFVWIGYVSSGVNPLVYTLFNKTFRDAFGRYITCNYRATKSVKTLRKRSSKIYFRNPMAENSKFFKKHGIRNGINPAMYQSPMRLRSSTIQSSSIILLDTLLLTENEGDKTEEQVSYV

Molecule | IC50 [1] | Ki [1] | IC50 (Progesterone receptor; read-out: IC50) | Ki (Progesterone receptor; read-out: Ki) | IC50 (Carbonic anhydrase 2; erythrocyte) | IC50 [2] | IC50 ([3]; cho-k1) | IC50 [4] | IC50 (Progesterone receptor) | IC50 (Carbonic anhydrase 2; read-out: IC50) | IC50 ([3]; read-out: IC50) | Ki ([3]; read-out: Ki) | Ki (Progesterone receptor) | Ki (Carbonic anhydrase 2; erythrocyte) | Ki [2] | Ki ([3]; cho-k1) | Ki [4]
CC1(C)O[C@@H]2C[C@H]3[C@@H]4CCC5=CC(=O)C=C[C@]5(C)[C@@]4(F)[C@@H](O)C[C@]3(C)[C@]2(C(=O)CO)O1 [TRIAMCINOLONE ACETONIDE] | Not Active | Not Active | 179 nM | 23 nM | Not Active | Not Active | Not Active | Not Active |  |  |  |  |  |  |  |  | 
NS(=O)(=O)c1cc2c(cc1Cl)NC(C(Cl)Cl)NS2(=O)=O (stereo not drawn) [TRICHLORMETHIAZIDE] | Not Active | Not Active |  |  | Not Active | Not Active | Not Active | Not Active | Not Active |  |  |  |  |  |  |  | 
Cc1c(C)c2c(c(C)c1O)CCC(C)(COc1ccc(CC3SC(=O)NC3=O)cc1)O2 (stereo not drawn) [TROGLITAZONE] | Not Active | Not Active |  |  |  | Not Active |  | Not Active | Not Active | 970 nM | 1310 nM | 835 nM |  |  |  |  | 
N[C@@H]1[C@H]2CN(c3nc4c(cc3F)c(=O)c(C(=O)O)cn4-c3ccc(F)cc3F)C[C@@H]12 [TROVAFLOXACIN] | Not Active | Not Active |  |  | Not Active | Not Active | Not Active | Not Active | Not Active |  |  |  |  |  |  |  | 
N#CC(C#N)=Cc1ccc(O)c(O)c1 [TYRPHOSTIN 23] | Not Active | Not Active |  |  | Not Active | Not Active | Not Active | Not Active | Not Active |  |  |  |  |  |  |  | 
CC[C@]1(O)C[C@H]2CN(CCc3c([nH]c4ccccc34)[C@@](C(=O)OC)(c3cc4c(cc3OC)N(C=O)[C@H]3[C@@](O)(C(=O)OC)[C@H](OC(C)=O)[C@]5(CC)C=CCN6CC[C@]43[C@@H]65)C2)C1 [VINCRISTINE] | Not Active | Not Active |  |  | Not Active | Not Active | Not Active | Not Active | Not Active |  |  |  |  |  |  |  | 
CCCOc1ccccc1-c1nc2nn[nH]c2c(=O)[nH]1 [ZAPRINAST] | Not Active | Not Active |  |  | Not Active | Not Active | Not Active | Not Active | Not Active |  |  |  |  |  |  |  | 
SODIUM NITROPRUSSIDE | Not Active | Not Active |  |  | Not Active | Not Active | Not Active | Not Active | Not Active |  |  |  | Not Active | Not Active | Not Active | Not Active | Not Active
